# From PubChem BioAssay (NCI)
#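 Interpolation was linear, between the two tested concentrations surrounding the appropriate level; five concentrations were tested over 48 hours in 96-well plates. GI50 = concentration required for 50% inhibition of growth. TGI: total growth inhibition.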
# Legend:
# Experiment in all cases: NCI tumour cell line growth inhibition, 48 h
# [1] = test system: RPMI-8226 leukemia
# [2] = test system: SN12C renal
# [3] = test system: SF-539 CNS
# [4] = test system: TK-10 renal
# [5] = test system: OVCAR-5 ovarian
# [6] = test system: A498 renal
# [7] = test system: MALME-3M melanoma
# [8] = test system: HL-60(TB) leukemia
# [9] = test system: SR leukemia
# [10] = test system: CCRF-CEM leukemia
# [11] = test system: SK-OV-3 ovarian
SMILES,TGI [1],TGI [2],TGI [3],TGI [4],TGI [5],TGI [6],TGI [7],TGI [8],TGI [9],TGI [10],TGI [11],GI50 [2],GI50 [3]
COc1ccc2nc3c(nc2c1)C(C)(C)C=C3c1ccc(Br)cc1,> 100 µM,> 100 µM,> 100 µM,> 100 µM,> 100 µM,> 100 µM,> 100 µM,> 100 µM,> 100 µM,> 100 µM,,,
CC(C)c1cccc(C(C)C)c1NC(=O)/C(Cc1nc2ccc(Cl)cc2[nH]c1=O)=N\NC(=O)C[N+](C)(C)C,> 100 µM,> 100 µM,> 100 µM,> 100 µM,> 100 µM,> 100 µM,> 100 µM,> 100 µM,> 100 µM,> 100 µM,> 100 µM,,
CC(=O)Nc1ccc(S(=O)(=O)Nc2cnc3ccccc3n2)cc1,> 100 µM,> 100 µM,> 100 µM,> 100 µM,> 100 µM,> 100 µM,> 100 µM,> 100 µM,> 100 µM,> 100 µM,> 100 µM,,
O=C1C(Nc2ccc(S(=O)(=O)Nc3cnc4ccccc4n3)cc2)=CC(=Nc2ccc(S(=O)(=O)Nc3cnc4ccccc4n3)cc2)c2ccccc21,> 77.8 µM,30.6 µM,35.7 µM,> 54.7 µM,30.8 µM,30.3 µM,33.8 µM,54.7 µM,> 73.9 µM,57 µM,31 µM,,
COc1ccc2cc(CNCCOCCOCCNCc3ccc4cc(OC)ccc4c3)ccc2c1,2.03 µM,3.85 µM,3.03 µM,2.98 µM,3.89 µM,3.78 µM,2.83 µM,0.657 µM,2.29 µM,1.24 µM,3.28 µM,,
C1=Nc2ccc(cc2)-c2ccc(cc2)N=Cc2ccccc2OCc2cccc(n2)COc2ccccc21,> 100 µM,> 100 µM,> 66.3 µM,> 93.3 µM,> 100 µM,> 100 µM,> 100 µM,> 100 µM,> 100 µM,> 100 µM,> 100 µM,,
COc1ccc(C2=Nn3c(nc4sc5c(c4c3=O)CCCC5)SC2)cc1,> 100 µM,> 100 µM,> 100 µM,> 100 µM,> 100 µM,> 100 µM,> 100 µM,> 100 µM,> 100 µM,> 100 µM,> 100 µM,,
CCOC(=O)C1=C(C)NC(c2ccccc2)=C(C(=O)OCc2ccccc2)C1C#Cc1ccccc1 (stereo not given),> 100 µM,> 100 µM,> 100 µM,> 100 µM,> 100 µM,> 100 µM,> 100 µM,> 100 µM,> 100 µM,> 100 µM,> 100 µM,,
CN1CN(c2ccccc2)C2(CCN(C(=O)OC(C)(C)C)CC2)C1=O,> 100 µM,> 100 µM,> 100 µM,> 100 µM,> 100 µM,> 100 µM,> 100 µM,> 100 µM,> 100 µM,> 100 µM,> 100 µM,,
Nc1nc(Cl)cc(OCC2(CO)CCCCC2)n1,> 100 µM,> 100 µM,> 100 µM,> 100 µM,> 100 µM,> 100 µM,> 100 µM,> 100 µM,> 100 µM,> 100 µM,,,
COc1ccc(/C=N/NC(=O)NCCNCCO)cc1,> 100 µM,> 100 µM,> 100 µM,> 100 µM,> 100 µM,> 100 µM,> 100 µM,> 100 µM,> 100 µM,> 100 µM,> 100 µM,,
CC(C)C(N=C1CC2CCC1(C(=O)Nc1ccccc1O)C2(C)C)c1ccccc1 (stereo not given),> 10 µM,> 10 µM,> 10 µM,> 10 µM,> 10 µM,> 10 µM,> 10 µM,> 10 µM,> 10 µM,> 10 µM,> 10 µM,,
Cc1ccnc2[nH]c(-c3ccc(Cl)cc3)cc(=O)c12,> 58.5 µM,> 100 µM,> 100 µM,> 100 µM,> 100 µM,46.6 µM,> 100 µM,4.74 µM,5.97 µM,> 100 µM,> 62.1 µM,,
CCc1c[n+]2c(cc1C1=CN3c4ccccc4[C@]45CCN6C/C(=C/CO)[C@H](C[C@H]64)[C@@H]([C@@H]1O)[C@H]35)-c1[nH]c3ccccc3c1CC2,> 50 µM,> 50 µM,> 50 µM,> 50 µM,> 50 µM,> 50 µM,> 50 µM,> 50 µM,> 50 µM,> 50 µM,> 50 µM,,
Nc1nc(Cl)cc(Oc2ccc(Cl)cc2)n1,> 100 µM,> 100 µM,> 100 µM,> 100 µM,> 100 µM,> 100 µM,> 100 µM,> 100 µM,> 100 µM,> 100 µM,> 100 µM,,
c1ccc(C2SCc3nc4ccccc4n32)cc1 (stereo not given),67.3 µM,> 100 µM,> 100 µM,> 100 µM,> 100 µM,> 100 µM,> 100 µM,46.5 µM,> 100 µM,> 100 µM,> 100 µM,,
CN1C(=O)c2c(c3c4ccccc4n(C)c3c3c2c2ccccc2n3C)C1=O,> 100 µM,> 100 µM,> 100 µM,> 100 µM,> 100 µM,> 100 µM,> 100 µM,,> 100 µM,> 100 µM,> 100 µM,,
Cc1[nH]c(-c2ccccc2)c(O)c1C(=O)OC1CC(C)CCC1C(C)C (stereo not given),54.9 µM,29.1 µM,29.7 µM,,27.2 µM,32.7 µM,32.9 µM,42.6 µM,34.7 µM,31 µM,29.1 µM,,
Clc1cccc(C=NC23CC4CC(CC(C4)C2)C3)c1Cl,> 10 µM,> 10 µM,> 10 µM,> 10 µM,> 10 µM,> 10 µM,> 10 µM,> 10 µM,2.63 µM,> 10 µM,> 10 µM,,
C#CCN(Cc1ccc2nc(-c3ccccc3)c(Cl)nc2c1)c1ccc(Cl)c(Cl)c1,,> 100 µM,> 100 µM,> 100 µM,> 100 µM,> 100 µM,> 100 µM,> 100 µM,> 100 µM,> 100 µM,> 100 µM,,

SMILES,TGI [1],TGI [2],TGI [3],TGI [4],TGI [5],TGI [6],TGI [7],TGI [8],TGI [9],TGI [10],TGI [11],GI50 [2],GI50 [3]
C=C1C(O)C2OC(=O)C(=C)C2C(OC(=O)/C(C)=C/C)CC2(C)OC2C2OC12 (stereo not given),7.72 µM,14.8 µM,> 100 µM,47.2 µM,83.7 µM,46.4 µM,29 µM,7.44 µM,24.5 µM,> 100 µM,> 100 µM,,
N#Cc1cc([N+](=O)[O-])ccc1NC(=O)C(=O)Nn1c(=S)[nH]c2ccccc2c1=O,> 100 µM,> 100 µM,> 100 µM,> 100 µM,> 100 µM,> 100 µM,> 100 µM,> 100 µM,> 100 µM,> 100 µM,> 100 µM,,
COc1cc(/C=[N+](\[O-])c2ccccc2Cl)ccc1OC(=S)S,> 100 µM,> 100 µM,> 100 µM,> 100 µM,> 100 µM,> 100 µM,> 100 µM,47.6 µM,> 100 µM,,> 100 µM,,
CCOC(=O)/C(C(N)=O)=C(/O)c1cnccn1,> 100 µM,> 100 µM,> 100 µM,,> 100 µM,> 100 µM,> 100 µM,> 100 µM,> 100 µM,> 100 µM,> 100 µM,,
O=C(NC1CCCCC1)N1CCNC1=S,> 100 µM,> 100 µM,> 100 µM,> 100 µM,> 100 µM,> 100 µM,> 100 µM,> 100 µM,> 100 µM,> 100 µM,> 100 µM,,
Cc1ccc(S(=O)(=O)N(CC(O)COc2ccccc2)c2ccccc2Cl)cc1 (stereo not given),30.4 µM,29.4 µM,33.2 µM,29.3 µM,51 µM,35 µM,29.2 µM,67.8 µM,35.1 µM,40.4 µM,52 µM,,
CCOC(=O)C(NS(=O)(=O)c1ccccc1)(C(F)(F)F)P(=O)(OCC(C)C)OCC(C)C (stereo not given),> 100 µM,> 100 µM,> 100 µM,> 100 µM,> 100 µM,> 100 µM,> 100 µM,> 100 µM,> 100 µM,> 100 µM,> 100 µM,,
COC(=O)C12CCC(CC1=O)C2(C)C (stereo not given),> 100 µM,> 100 µM,> 100 µM,> 100 µM,,> 100 µM,> 100 µM,> 100 µM,> 100 µM,,> 100 µM,,
COc1ccc(/C=C2\CCC(C)(CN(C)C)C2=O)cc1Br (stereo not given),58.4 µM,31.8 µM,43.5 µM,44 µM,> 100 µM,50 µM,61.9 µM,85.2 µM,45.7 µM,> 80.5 µM,70.5 µM,,
O=C(N/N=C/c1ccc(O)cc1)NNCCO,,> 100 µM,> 100 µM,> 100 µM,> 100 µM,> 100 µM,> 100 µM,> 100 µM,> 100 µM,> 100 µM,> 100 µM,,
Cn1cnc([N+](=O)[O-])c1Sc1nnc(-c2ccc(Cl)cc2)n1C,71.3 µM,28.4 µM,37.4 µM,31.6 µM,34.8 µM,81.8 µM,23 µM,,33.7 µM,22 µM,> 100 µM,,
Cc1c2cc[n+](C)cc2c(C)c2c1[nH]c1ccc(OC(C)(C)C)cc12,> 100 µM,> 100 µM,> 100 µM,> 100 µM,> 100 µM,> 100 µM,> 100 µM,> 100 µM,> 100 µM,> 100 µM,> 100 µM,,
OC[C@H](O)[C@@H](OCc1ccccc1)[C@H](NCc1ccccc1)c1cccs1,> 100 µM,> 100 µM,> 100 µM,> 100 µM,> 100 µM,> 100 µM,> 100 µM,> 100 µM,> 100 µM,> 100 µM,> 100 µM,,
CNC(=O)/C(C#N)=C(\N)N1CCCC1,> 100 µM,> 100 µM,> 100 µM,> 100 µM,> 100 µM,> 100 µM,> 100 µM,> 100 µM,> 100 µM,> 100 µM,> 100 µM,,
COc1ccc(NC(=O)CC2SC(=Nc3ccc(Cl)cc3C)NC2=O)c([N+](=O)[O-])c1 (stereo not given),> 100 µM,> 100 µM,> 100 µM,> 100 µM,> 100 µM,> 100 µM,> 100 µM,> 100 µM,> 100 µM,> 100 µM,,,
O=C(NC12CC3CC(CC(C3)C1)C2)n1cnc2c(Cl)ncnc21,> 100 µM,> 100 µM,81.7 µM,> 100 µM,> 100 µM,> 100 µM,> 100 µM,16.9 µM,29 µM,45.7 µM,79.4 µM,,
O=[N+]([O-])c1cc(-c2ccc([As](=O)(O)O)cc2)ccc1[As](=O)(O)O,> 100 µM,> 100 µM,,> 100 µM,> 100 µM,> 100 µM,> 100 µM,> 100 µM,> 100 µM,> 100 µM,,,
CCc1cc2c(cc1O)CC[C@@H]1[C@@H]2CC[C@]2(C)[C@@H](O)CC[C@@H]12,,20 µM,9.5 µM,60.9 µM,39.4 µM,34.6 µM,12.5 µM,7.66 µM,10.9 µM,15 µM,39.6 µM,7.3 µM,3.27 µM
O=C(O)C(=Cc1ccc(-c2ccc([N+](=O)[O-])cc2)o1)C(=O)O,> 100 µM,> 100 µM,> 100 µM,> 100 µM,> 100 µM,> 100 µM,> 100 µM,,> 100 µM,> 100 µM,> 100 µM,,
O=C(O)Cn1cnc2c(=O)[nH]c(Nc3ccccc3)nc21,> 100 µM,> 100 µM,> 100 µM,> 100 µM,> 100 µM,> 100 µM,> 100 µM,,> 100 µM,> 100 µM,> 100 µM,,
